# Data: PubChem BioAssay (NCI)
# Several values for one entry are separate records, joined by “and”; a condition that tells them apart may be missing. Equal entries are not always repeated.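 Grown in 96-well plates, cells were treated for 48 hours with each compound at five concentrations. Insufficient inhibition: endpoint recorded as highest concentration tested. GI50 = concentration required for 50% inhibition of growth. Definition used: TGI = concentration required for complete inhibition of growth.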
# How the values were obtained:
# Assay in all cases: NCI anticancer screen, dose series, 48 h
# 786-0 renal = system: 786-0 renal
# A498 renal = system: A498 renal
# A549 NSCLC = system: A549 NSCLC
# ACHN renal = system: ACHN renal
# BT-549 breast = system: BT-549 breast
# CAKI-1 renal = system: CAKI-1 renal
# CCRF-CEM leukemia = system: CCRF-CEM leukemia
# COLO 205 colon = system: COLO 205 colon
# DU-145 prostate = system: DU-145 prostate
# EKVX NSCLC = system: EKVX NSCLC
# HCC-2998 colon = system: HCC-2998 colon
# HCT-116 colon = system: HCT-116 colon
# HCT-15 colon = system: HCT-15 colon
# HL-60(TB) leukemia = system: HL-60(TB) leukemia
# HOP-62 NSCLC = system: HOP-62 NSCLC
# HOP-92 NSCLC = system: HOP-92 NSCLC
# HS 578T breast = system: HS 578T breast
# HT29 colon = system: HT29 colon
# IGROV1 ovarian = system: IGROV1 ovarian
# K-562 leukemia = system: K-562 leukemia
# KM12 colon = system: KM12 colon
# LOX IMVI melanoma = system: LOX IMVI melanoma
# M14 melanoma = system: M14 melanoma
# MALME-3M melanoma = system: MALME-3M melanoma
# MCF7 breast = system: MCF7 breast
# MDA-MB-231 breast = system: MDA-MB-231 breast
# MDA-MB-435 = system: MDA-MB-435
# MDA-N = system: MDA-N
# MOLT-4 leukemia = system: MOLT-4 leukemia
# NCI-H226 lung = system: NCI-H226 lung
# NCI-H23 lung = system: NCI-H23 lung
# NCI-H460 lung = system: NCI-H460 lung
# NCI-H522 lung = system: NCI-H522 lung
# NCI/ADR-RES ovarian = system: NCI/ADR-RES ovarian
# OVCAR-3 ovarian = system: OVCAR-3 ovarian
# OVCAR-4 ovarian = system: OVCAR-4 ovarian
# OVCAR-5 ovarian = system: OVCAR-5 ovarian
# OVCAR-8 ovarian = system: OVCAR-8 ovarian
# PC-3 prostate = system: PC-3 prostate
# RPMI-8226 leukemia = system: RPMI-8226 leukemia
# RXF 393 renal = system: RXF 393 renal
# SF-268 CNS = system: SF-268 CNS
# SF-295 CNS = system: SF-295 CNS
# SF-539 CNS = system: SF-539 CNS
# SK-MEL-2 melanoma = system: SK-MEL-2 melanoma
# SK-MEL-28 melanoma = system: SK-MEL-28 melanoma
# SK-MEL-5 melanoma = system: SK-MEL-5 melanoma
# SK-OV-3 ovarian = system: SK-OV-3 ovarian
# SN12C renal = system: SN12C renal
# SNB-19 CNS = system: SNB-19 CNS
# SNB-75 CNS = system: SNB-75 CNS
# SR leukemia = system: SR leukemia
# SW-620 colon = system: SW-620 colon
# T-47D breast = system: T-47D breast
# TK-10 renal = system: TK-10 renal
# U251 CNS = system: U251 CNS
# UACC-257 melanoma = system: UACC-257 melanoma
# UACC-62 melanoma = system: UACC-62 melanoma
# UO-31 renal = system: UO-31 renal
smiles,measurement,setting,value
N#CC12CC3=C(N=C1NC1=C(CCc4ccccc41)C2)c1ccccc1CC3 (configuration not stated),TGI,786-0 renal,43800 nM
same,TGI,A498 renal,7970 nM
same,TGI,A549 NSCLC,> 100000 nM
same,TGI,ACHN renal,> 100000 nM
same,TGI,BT-549 breast,65300 nM
same,TGI,CAKI-1 renal,77200 nM
same,TGI,CCRF-CEM leukemia,3380 nM
same,TGI,COLO 205 colon,5550 nM
same,TGI,DU-145 prostate,> 85100 nM
same,TGI,EKVX NSCLC,> 100000 nM
same,TGI,HCC-2998 colon,4350 nM
same,TGI,HCT-116 colon,21700 nM
same,TGI,HCT-15 colon,51000 nM
same,TGI,HL-60(TB) leukemia,1150 nM
same,TGI,HOP-62 NSCLC,53000 nM
same,TGI,HOP-92 NSCLC,41400 nM
same,TGI,HS 578T breast,> 34500 nM
same,TGI,HT29 colon,6520 nM
same,TGI,IGROV1 ovarian,> 40300 nM
same,TGI,K-562 leukemia,1360 nM
same,TGI,KM12 colon,20400 nM
same,TGI,LOX IMVI melanoma,13900 nM
same,TGI,M14 melanoma,17600 nM
same,TGI,MALME-3M melanoma,37100 nM
same,TGI,MCF7 breast,> 38300 nM
same,TGI,MDA-MB-231 breast,> 57500 nM
same,TGI,MDA-MB-435,923 nM
same,TGI,MDA-N,809 nM
same,TGI,MOLT-4 leukemia,7000 nM
same,TGI,NCI-H226 lung,29700 nM
same,TGI,NCI-H23 lung,39200 nM
same,TGI,NCI-H460 lung,> 100000 nM
same,TGI,NCI-H522 lung,6470 nM
same,TGI,NCI/ADR-RES ovarian,29500 nM
same,TGI,OVCAR-3 ovarian,8130 nM
same,TGI,OVCAR-4 ovarian,> 78600 nM
same,TGI,OVCAR-5 ovarian,> 100000 nM
same,TGI,OVCAR-8 ovarian,15700 nM
same,TGI,PC-3 prostate,> 54500 nM
same,TGI,RPMI-8226 leukemia,4150 nM
same,TGI,RXF 393 renal,> 100000 nM
same,TGI,SF-268 CNS,> 86400 nM
same,TGI,SF-295 CNS,12000 nM
same,TGI,SF-539 CNS,7220 nM
same,TGI,SK-MEL-2 melanoma,23600 nM
same,TGI,SK-MEL-28 melanoma,44300 nM
same,TGI,SK-MEL-5 melanoma,> 35500 nM
same,TGI,SK-OV-3 ovarian,27600 nM
same,TGI,SN12C renal,> 81900 nM
same,TGI,SNB-19 CNS,73500 nM
same,TGI,SNB-75 CNS,11000 nM
same,TGI,SR leukemia,694 nM
same,TGI,SW-620 colon,> 42400 nM
same,TGI,T-47D breast,> 96000 nM
same,TGI,TK-10 renal,65800 nM
same,TGI,U251 CNS,17100 nM
same,TGI,UACC-257 melanoma,> 84400 nM
same,TGI,UACC-62 melanoma,42600 nM
same,TGI,UO-31 renal,35100 nM
Nc1ccn(C2OC(CO)C(O)C2(F)F)c(=O)n1 (configuration not stated),GI50,786-0 renal,3.9 nM
same,GI50,A498 renal,54.8 nM
same,GI50,A549 NSCLC,15.8 nM
same,TGI,A549 NSCLC,> 100000 nM
same,GI50,ACHN renal,25.2 nM and 3.79 nM
same,TGI,ACHN renal,3480 nM
same,GI50,BT-549 breast,74.4 nM and 17.8 nM
same,TGI,BT-549 breast,> 100000 nM
same,GI50,CAKI-1 renal,9.25 nM
same,TGI,CAKI-1 renal,2550 nM and 21400 nM
same,GI50,CCRF-CEM leukemia,61.4 nM and 26.8 nM
same,GI50,COLO 205 colon,568 nM
same,TGI,COLO 205 colon,> 100000 nM
same,GI50,DU-145 prostate,27.4 nM
same,TGI,EKVX NSCLC,> 100000 nM
same,GI50,HCC-2998 colon,940 nM
same,TGI,HCC-2998 colon,> 100000 nM
same,GI50,HCT-116 colon,7.46 nM
same,TGI,HCT-116 colon,> 100000 nM
same,GI50,HCT-15 colon,2200 nM
same,TGI,HCT-15 colon,> 100000 nM
same,GI50,HL-60(TB) leukemia,28.6 nM
same,TGI,HL-60(TB) leukemia,220 nM
same,GI50,HOP-62 NSCLC,25.5 nM
same,TGI,HOP-62 NSCLC,805 nM and 3160 nM
same,GI50,HOP-92 NSCLC,223 nM
same,GI50,HS 578T breast,> 100000 nM
same,TGI,HS 578T breast,> 100000 nM
same,TGI,HT29 colon,> 100000 nM
same,GI50,K-562 leukemia,82.4 nM
same,GI50,KM12 colon,2840 nM
same,TGI,KM12 colon,> 100000 nM
same,GI50,LOX IMVI melanoma,28.5 nM
same,TGI,LOX IMVI melanoma,> 100000 nM
same,GI50,M14 melanoma,6.39 nM
same,TGI,M14 melanoma,148 nM and 24.9 nM
same,GI50,MALME-3M melanoma,88.3 nM
same,GI50,MCF7 breast,5.52 nM
same,TGI,MCF7 breast,> 100000 nM
same,GI50,MDA-MB-231 breast,7260 nM and 924 nM
same,TGI,MDA-MB-231 breast,> 100000 nM
same,GI50,MDA-MB-435,18.9 nM
same,TGI,MDA-MB-435,> 100000 nM
same,GI50,MDA-N,64.7 nM
same,TGI,MDA-N,> 100000 nM
same,GI50,MOLT-4 leukemia,44.1 nM
same,GI50,NCI-H226 lung,146 nM and 95 nM
same,TGI,NCI-H226 lung,> 100000 nM
same,GI50,NCI-H23 lung,7.88 nM
same,GI50,NCI-H460 lung,6.51 nM
same,GI50,NCI-H522 lung,1350 nM
same,GI50,NCI/ADR-RES ovarian,14.4 nM
same,GI50,OVCAR-3 ovarian,3620 nM
same,TGI,OVCAR-3 ovarian,> 100000 nM
same,GI50,OVCAR-4 ovarian,> 100000 nM
same,TGI,OVCAR-4 ovarian,> 100000 nM
same,GI50,OVCAR-5 ovarian,182 nM
same,TGI,OVCAR-5 ovarian,> 100000 nM
same,GI50,OVCAR-8 ovarian,12.2 nM
same,TGI,OVCAR-8 ovarian,1020 nM
same,TGI,PC-3 prostate,> 100000 nM
same,GI50,RPMI-8226 leukemia,561 nM
same,TGI,RPMI-8226 leukemia,> 100000 nM
same,GI50,RXF 393 renal,36.3 nM
same,GI50,SF-268 CNS,37.8 nM
same,GI50,SF-295 CNS,38.9 nM
same,TGI,SF-295 CNS,21.6 nM
same,GI50,SF-539 CNS,16.7 nM
same,TGI,SF-539 CNS,553 nM and 63.3 nM
same,TGI,SK-MEL-2 melanoma,> 100000 nM
same,TGI,SK-MEL-28 melanoma,> 100000 nM
same,GI50,SK-MEL-5 melanoma,39.2 nM
same,TGI,SK-MEL-5 melanoma,> 100000 nM
same,GI50,SK-OV-3 ovarian,215 nM and 307 nM
same,TGI,SK-OV-3 ovarian,> 100000 nM
same,GI50,SN12C renal,39.1 nM
same,TGI,SN12C renal,946 nM and 1110 nM
same,GI50,SNB-19 CNS,13.1 nM
same,TGI,SNB-19 CNS,70100 nM
same,GI50,SNB-75 CNS,247 nM and 25.8 nM and 30.6 nM
same,TGI,SNB-75 CNS,944 nM
same,GI50,SR leukemia,57.9 nM
same,GI50,SW-620 colon,342 nM and 325 nM
same,TGI,SW-620 colon,> 100000 nM
same,GI50,T-47D breast,1010 nM and 1390 nM
same,GI50,TK-10 renal,> 100000 nM
same,TGI,TK-10 renal,> 100000 nM
same,GI50,U251 CNS,22.1 nM
same,TGI,U251 CNS,> 100000 nM
same,TGI,UACC-257 melanoma,> 100000 nM
same,GI50,UACC-62 melanoma,38.3 nM
same,GI50,UO-31 renal,17.5 nM
same,TGI,UO-31 renal,685 nM and 433 nM and 327 nM
